Assays:
NCI-H460 = experiment: Proliferation assay (Alamar Blue / XTT), NCI-H460; format: cell-based; conditions: Homo sapiens; cell line NCI-H460 (lung)
SKOV-3 = experiment: Proliferation assay (Alamar Blue / XTT), SKOV-3; format: cell-based; conditions: Homo sapiens, SK-OV-3; cell line SKOV-3 (ovaries)
HCT116 = experiment: Proliferation assay (Alamar Blue / XTT), HCT116; format: cell-based; conditions: Homo sapiens; cell line HCT-116 (colon)
MDA MB468 = experiment: Proliferation assay (Alamar Blue / XTT), MDA MB468; format: cell-based; conditions: Homo sapiens, MDA-MB-468; cell line MDA-MB468 (breast)
PC-3 = experiment: Proliferation assay (Alamar Blue / XTT), PC-3; format: cell-based; conditions: Homo sapiens, cell line PC3 (prostate)
A549 = experiment: Proliferation assay (Alamar Blue / XTT), A549; format: cell-based; conditions: Homo sapiens; cell line A549 (lung)
U87MG = experiment: Proliferation assay (Alamar Blue / XTT), U87MG; format: cell-based; conditions: Homo sapiens, U-87 MG; cell line U87MG (glioma)
RKOP27 = experiment: Proliferation assay (Alamar Blue / XTT), RKOP27; format: cell-based; conditions: Homo sapiens; cell line RKOp27 (colon)
A2780 = experiment: XTT proliferation test, A2780; format: cell-based; conditions: Homo sapiens, cell line A2780 (ovary), non-resistant
Source text: (§1) For further characterization, the substances according to the invention were examined in resistant tumour cell lines compared to non-resistant wild-type tumour cell lines.
(§2) The cell lines examined are the cell line A2780 (ovary), the cis-platin-resistant cell line A2780 (ovary), the cell line L1210 (leukaemia), the vincristine-resistant cell line L1210 (leukaemia), the cell line MESSA (uterus), the doxorubicin-resistant cell line MESSA Dx5 (uterus), the cell line NCIH69 (lung) and the multi-drug-resistant cell line NCIH69 AR (lung).

A2780 cis-Pt = experiment: XTT proliferation test, cis-platin-resistant A2780; format: cell-based; conditions: Homo sapiens, cis-platin-resistant cell line A2780 (ovary)
Source text: as §1, §2

L1210 = experiment: XTT proliferation test, L1210; format: cell-based; conditions: Mus musculus, cell line L1210 (leukaemia), non-resistant
Source text: as §1, §2

L1210 VCR = experiment: XTT proliferation test, vincristine-resistant L1210; format: cell-based; conditions: Mus musculus, vincristine-resistant cell line L1210 (leukaemia)
Source text: as §1, §2

MESSA = experiment: XTT proliferation test, MESSA; format: cell-based; conditions: Homo sapiens, MES-SA, cell line MESSA (uterus), non-resistant
Source text: as §1, §2

MESSA DX5 = experiment: XTT proliferation test, doxorubicin-resistant MESSA Dx5; format: cell-based; conditions: Homo sapiens, MES-SA/Dx5, doxorubicin-resistant cell line MESSA Dx5 (uterus)
Source text: as §1, §2

NCI H69 = experiment: XTT proliferation test, NCI H69; format: cell-based; conditions: Homo sapiens, cell line NCIH69 (lung), non-resistant
Source text: as §1, §2

NCI H69 AR = experiment: XTT proliferation test, multi-drug-resistant NCI H69 AR; format: cell-based; conditions: Homo sapiens, NCI-H69AR, multi-drug-resistant cell line NCIH69 AR (lung)
Source text: as §1, §2

L363 = experiment: Proliferation assay (Alamar Blue / XTT), L363; format: cell-based; conditions: Homo sapiens, L-363; cell line L363 (leukaemia)
TMM = experiment: Proliferation assay (Alamar Blue / XTT), TMM; format: cell-based; conditions: Homo sapiens; cell line TMM (leukaemia)
RS4, 11 = experiment: Proliferation assay (Alamar Blue / XTT), RS4, 11; format: cell-based; conditions: Homo sapiens; cell line RS4,11 (leukaemia)
HSB-2 = experiment: Proliferation assay (Alamar Blue / XTT), HSB-2; format: cell-based; conditions: Homo sapiens, HSB2; cell line HSB-2 (leukaemia)
NALM-6 = experiment: Proliferation assay (Alamar Blue / XTT), NALM-6; format: cell-based; conditions: Homo sapiens; cell line NALM-6 (leukaemia)
MOLT-3 = experiment: Proliferation assay (Alamar Blue / XTT), MOLT-3; format: cell-based; conditions: Homo sapiens; cell line MOLT-3 (leukaemia)
MOLT-16 = experiment: Proliferation assay (Alamar Blue / XTT), MOLT-16; format: cell-based; conditions: Homo sapiens; cell line MOLT-16 (leukaemia)
KB-HeLa = experiment: Proliferation assay (Alamar Blue / XTT), KB-HeLa; format: cell-based; conditions: Homo sapiens; cell line KB/HeLa (cervix)
MCF-7 = experiment: Proliferation assay (Alamar Blue / XTT), MCF-7; format: cell-based; conditions: Homo sapiens, MCF7; cell line MCF-7 (breast)
MDA-MB435 = experiment: Proliferation assay (Alamar Blue / XTT), MDA-MB435; format: cell-based; conditions: Homo sapiens, MDA-MB-435; cell line MDA-MBA435 (breast)
LNCaP = experiment: Proliferation assay (Alamar Blue / XTT), LNCaP; format: cell-based; conditions: Homo sapiens; cell line LnCap (prostate)

Row | Compound | EC50 (NCI-H460) [nM] | EC50 (SKOV-3) [nM] | EC50 (HCT116) [nM] | EC50 (PC-3) [nM] | EC50 (A549) [nM] | EC50 (U87MG) [nM] | melting point [°C] | EC50 (A2780) [nM] | EC50 (A2780 cis-Pt) [nM] | EC50 (L1210) [nM] | EC50 (L1210 VCR) [nM] | EC50 (MDA MB468) [nM] | EC50 (RKOP27) [nM] | EC50 (MESSA) [nM] | EC50 (MESSA DX5) [nM] | EC50 (NCI H69) [nM] | EC50 (NCI H69 AR) [nM] | other results
1 | Cc1cc(-c2ccc3ncc(NC(=O)NC(C)C)nc3c2)cc(C)c1O [Compound 17, 1-[7-(4-Hydroxy-3,5-dimethylphenyl)quinoxalin-2-yl]-3-isopropylurea] | 47 | 40 | 24 | 28 | 29 | 10 | 280 to 283 | 0.3 | 0.5 | 2 | 4 | 39 | 26 | 152 | 139 | 27 | 86 | EC50 (L363): 78 nM; EC50 (TMM): 32 nM; EC50 (RS4, 11): 37 nM; EC50 (HSB-2): 37 nM; EC50 (NALM-6): 54 nM; EC50 (MOLT-3): 36 nM; EC50 (MOLT-16): 56 nM; EC50 (KB-HeLa): 37 nM; EC50 (MCF-7): 32 nM; EC50 (MDA-MB435): 18 nM; EC50 (LNCaP): 40 nM
2 | Cc1cc(-c2ccc3ncc(NC(=O)NC(C)(C)C)nc3c2)cc(C)c1O [Compound 9, 1-tert-Butyl-3-[7-(4-hydroxy-3,5-dimethylphenyl)quinoxalin-2-yl]urea] | 238 | 248 | 229 | 112 | 289 | 181 |  |  |  |  |  | 263 | 176 |  |  |  |  | 

More lines, main results first:

Row | EC50 (NCI-H460) [nM] | EC50 (SKOV-3) [nM] | EC50 (HCT116) [nM] | EC50 (PC-3) [nM] | EC50 (A549) [nM] | EC50 (U87MG) [nM] | melting point [°C] | EC50 (A2780) [nM] | EC50 (A2780 cis-Pt) [nM] | EC50 (L1210) [nM] | EC50 (L1210 VCR) [nM] | Compound | EC50 (MDA MB468) [nM] | EC50 (RKOP27) [nM] | EC50 (MESSA) [nM] | EC50 (MESSA DX5) [nM] | EC50 (NCI H69) [nM] | EC50 (NCI H69 AR) [nM] | other results
3 | 52 | 50 | 36 | 12 | 16 | 224 | 285 to 286 |  |  |  |  | Cc1cc(-c2ccc3ncc(NC(=S)NC4CCC4)nc3c2)cc(C)c1O [Compound 34, 1-Cyclobutyl-3-[7-(4-hydroxy-3,5-dimethylphenyl)quinoxalin-2-yl]-thiourea] | 30 | 58 |  |  |  |  | 
4 | 21 | 16 | 3 | 3 | 9 | 2 | 274 to 276 | 22 | 19 | 5 | 4 | Cc1cc(-c2ccc3ncc(NC(=S)NC4CC4)nc3c2)cc(C)c1O [Compound 23, 1-Cyclopropyl-3-[7-(4-hydroxy-3,5-dimethylphenyl)quinoxalin-2-yl]-thiourea] | 148 | 20 | 48 | 16 | 4 | 0.8 | 
5 | 27 | 30 | 7 | 11 | 8 | 2 | 243 to 244 | 18 | 14 | 15 | 19 | CCNC(=S)Nc1cnc2ccc(-c3cc(C)c(O)c(C)c3)cc2n1 [Compound 22, 1-Ethyl-3-[7-(4-hydroxy-3,5-dimethylphenyl)quinoxalin-2-yl]thiourea] | 53 | 28 | 141 | 38 | 10 | 8 | 
